{"source": "paper PMC8556396", "about": "“Statin-mediated disruption of Rho GTPase prenylation and activity inhibits respiratory syncytial virus infection” (Communications Biology, 2021)", "key": {"[1]": {"system": "prenylated proteins (small GTPases)", "test": "Measurement of protein prenylation by click chemistry", "format": "cell-based", "conditions": "for GAPDH Normalized Intensity, Farnesylation / GAPDH Normalized Intensity, Geranylgeranylation / Raw Integrated Intensity, Farnesylation / Raw Integrated Intensity, Geranylgeranylation: + statin (atorvastatin 3.5 µM)", "procedure": "HEp-2 cells were cultured in the presence of farnesyl alcohol azide (FAA) (SC-294586, Santa Cruz Biotechnology) or geranylgeranyl alcohol azide (GGAA) (C10249, Thermo Fisher Scientific) at a final concentration of 25 µM diluted in 10 mM aqueous NH4OH. Cells were infected with RSV A2 (MOI 0.5) and treated with drugs 2 h post-viral exposure. Cell lysis was performed on ice in RIPA buffer 48 h p.i., and prenylated proteins were reacted with biotin-PEG4-alkyne using the Click-iT Protein Reaction Buffer Kit (C10276, Thermo Fisher Scientific) as per the manufacturer’s protocol. Prenylated proteins in the processed samples were then visualized by western blot using a streptavidin-HRP conjugate (RPN1231, Cytiva) and Clarity ECL Substrate (1705061, Bio-Rad). Relative protein levels were quantified by densitometry in ImageJ (v1.52b)."}, "RSV-GFP": {"system": "RSV-GFP", "test": "RSV-GFP infection of HEp-2 cells, automated imaging, dose-response", "format": "cell-based, Respiratory syncytial virus", "conditions": "for EC50: HEp-2, RSV-GFP MOI 0.5, treated 2 h post-viral exposure", "procedure": "HEp-2 cells were seeded to black, flat, microclear-bottom 96-well plates (655096, Greiner Bio-One) at a density of 5000 cells per well and incubated at 37 °C/5% CO2 overnight. The following morning, cells were washed twice with serum-free EMEM and treated with RSV-GFP (MOI 0.5) in a minimal volume of serum-free media for 90 min under frequent agitation. Unbound virus was then removed and replaced with fresh serum-containing EMEM. All drug additions were performed 2 h post-viral exposure, unless otherwise stated. Nuclei were stained with Hoechst 33342 (H3570, Thermo Fisher Scientific) (at a final concentration of 1 µg/mL) 48 h p.i. and imaging was performed using the Cellomics ArrayScan VTI HCS Reader at ×10 magnification (SPARC BioCentre, The Hospital for Sick Children, Toronto, ON).\nAutomated quantification of infection rates from fluorescent images were performed in CellProfiler (v2.2.0)[86]. Major steps in the image analysis pipeline included: (1) background subtraction and smoothing, (2) segmentation of nuclei, (3) segmentation of GFP-fluorescent area, (4) object masking, and (5) measurement of nuclear number, size, and intensity. Infection rate was quantified from the ratio of nuclei within GFP-fluorescent area to the total number of nuclei (Fig. 1b). This method of analysis accounts for in vitro syncytium formation induced by RSV, whereby a single infected cell may arise from the fusion of multiple cells. Mean nuclear fluorescent intensity and size was quantified as a measure of cell viability. […]"}, "HEp-2 cells": {"system": "HEp-2 cells", "test": "In vitro cytotoxicity assay (MTT)", "format": "cell-based"}}, "note": "“And” between values parts separate entries of the source, which are not always exact repeats. Identical values can stand only once. Counter-ions that a name gives are not always drawn."}
{"smiles": "CC(C)c1c(C(=O)Nc2ccccc2)c(-c2ccccc2)c(-c2ccc(F)cc2)n1CC[C@@H](O)C[C@@H](O)CC(=O)O", "note": "[Atorvastatin, Atorvastatin calcium salt trihydrate]", "values": [{"measurement": "GAPDH Normalized Intensity, Farnesylation", "setting": "[1]; + RSV", "result": "1.959 and 2.027"}, {"measurement": "GAPDH Normalized Intensity, Geranylgeranylation", "setting": "[1]; + RSV", "result": "0.9753 and 1.167"}, {"measurement": "Raw Integrated Intensity, Farnesylation", "setting": "[1]; + RSV", "result": "2027541 and 2238487"}, {"measurement": "Raw Integrated Intensity, Geranylgeranylation", "setting": "[1]; + RSV", "result": "1062035 and 1238827"}, {"measurement": "GAPDH Normalized Intensity, Farnesylation", "setting": "[1]; - RSV", "result": "1.992 and 1.8833"}, {"measurement": "GAPDH Normalized Intensity, Geranylgeranylation", "setting": "[1]; - RSV", "result": "0.8805 and 0.8849"}, {"measurement": "Raw Integrated Intensity, Geranylgeranylation", "setting": "[1]; - RSV", "result": "899910 and 921628"}, {"measurement": "Raw Integrated Intensity, Farnesylation", "setting": "[1]; - RSV, one value per lane", "result": "1842503 and 1809411"}, {"measurement": "effect on virus-induced small GTPase prenylation", "setting": "[1]; atorvastatin 3.5 µM, 48 h p.i.", "result": "largely mitigate these virus-induced increases to small GTPase prenylation"}, {"measurement": "EC50", "setting": "RSV-GFP", "result": 2.56, "unit": "µM"}, {"measurement": "EC50", "setting": "RSV-GFP; human respiratory syncytial virus, HEp-2, 2 h", "result": 2.6, "unit": "µM"}, {"measurement": "inhibition at 0.1 µM", "setting": "RSV-GFP; human respiratory syncytial virus, HEp-2, 48 h, read-out: RSV-GFP inhibition (%), log Conc (uM) -1, replicate values", "result": 5.55, "unit": "%"}, {"measurement": "cellular viability by MTT assay at EC50", "setting": "HEp-2 cells", "result": "no significant difference from baseline"}, {"measurement": "doses with significant reduction in viability", "setting": "HEp-2 cells; human", "result": "greater than 10.0 µM"}]}
